Results reported in patent publication US20230136569A1, “USE OF NMN TO REDUCE IMMUNODEPRESSION AND IMMUNOSENESCENCE” (NUVAMID SA, priority 2020, published 2023).

Tests used:
[1] = system: thymocytes; assay: Flow cytometry of thymocytes from old mice; type: in vivo; conditions: 500 mg/kg p.o. in drinking water, 6 weeks (FIG. 3)
Protocol: The administering of β-NMN at 500 mg/kg, of α-NMN at 500 mg/kg and of the vehicle (water) was obtained via oral route (p.o) in the drinking water to young and old mice. The solutions were prepared by dissolving the powder of β-NMN or α-NMN in the vehicle (water). The study comprised 4 groups each having 6 mice: • Group 1: young mice (aged 10 weeks)+drinking water (vehicle) • Groupe 2: old mice (aged 15 months)+drinking water (vehicle) • Group 3: old mice (aged 15 months)+compound I-B (alpha-NMN) in the drinking water • Group 4: old mice (aged 15 months)+compound I-A (beta-NMN) in the drinking water The water consumption of the mice was assessed per cage every other day. The mice were weighed every week. The mice in Group 3 were sacrificed after 4 weeks for organ collection and characterisation of T cell function. The mice in Group 4 were sacrificed after 6 weeks for organ collection and characterisation of T cell function. On the day of sacrifice, the mice were anaesthetised with Vetoflurane (isoflurane) and blood samples were taken from the retroorbital sinus. The blood was incubated for 30 minutes at ambient temperature and then centrifuged at 1300 g for 10 minutes. […] The thymus was weighed and measured to evaluate involution thereof. […] Measured parameters: The results of flow cytometry are expressed in number or as a proportion of cells per organ. […]

[2] = system: CD4+ and CD8+ T cells (splenocytes); assay: Proliferation assay of CFSE-stained splenocytes from treated mice after stimulation; type: in vivo; conditions: splenocytes of treated old mice, anti-CD3/CD28 beads 96 h
Protocol: Proliferation assay: At D0+5 weeks, the splenocytes were marked with 2.5 μM CFSE and cultured at a concentration of 0.25×10^6 cells per well in a 96-well plate. The cells were stimulated with 2.5 μg InfluvacTetra® and incubated at 37° C. for 96 hours. The cells were then marked with anti-CD4 and CD8 antibodies and the proliferation of the T CD4+ and CD8+ cells was analysed by flow cytometry. The total splenocytes were stained with Carboxyfluorescein succinimidyl ester (CFSE) and stimulated with beads coated with anti-CD3/CD28 for 96 h. The mean fluorescence intensity of the CFSE was analysed and the ratio before and after stimulation was calculated.

`NC(=O)c1ccc[n+]([C@@H]2O[C@H](COP(=O)([O-])O)[C@@H](O)[C@H]2O)c1` (stereo in doubt) [I-A, nicotinamide mononucleotide] was tested. Which “number of CD8+ thymocytes” value [1] did it give?
The value was “increase in the number of CD8+ thymocytes”.

What about the “proliferation of CD4 cells” value ([2]; compared with the three other groups (FIG. 9A)) of the same molecule?
Its value is “significant increase in the proliferation of CD4 and CD8 cells”.

What about the “proliferation of CD8 cells” value ([2]; compared with the three other groups (FIG. 9B)) of the same molecule?
Its value is “significant increase in the proliferation of CD4 and CD8 cells”.
